Measured values from patent US7414042B2, “Method and composition for selectively inhibiting melanoma” (The Board of Trustees of The University of Illinois, priority 1995, dated 2008).
In brackets after ≈: the same amount, converted by molar mass. Entries after “also recorded” stand apart in the source; their conditions may differ.

Tests used:
[1] = test system: Walker 256 murine carcinosarcoma; settings: cited from earlier work
[2] = 200 and 400 mg/kg doses; cited from earlier work
MEL-4 = assay: Dose-response study, additional human melanoma cell line; assay type: cell-based
Description: (§1) Moreover, the cytotoxic response mediated by betulinic acid is not exclusively limited to the MEL-2 melanoma cell line.
(§2) The plates were incubated for three days. […] Dose response studies were performed to generate ED50 values.

MEL-1 = assay: as above; assay type: cell-based
Description: as §1, §2

MEL-3 = assay: as above; assay type: cell-based
Description: as §1, §2

[3] = test system: human melanoma cells (MEL-2); assay: In vivo activity against established MEL-2 melanomas in athymic mice; settings: treatment from day 13, IP every third day; betulinic acid/PVP 250 mg/kg/dose, DTIC 4 mg/kg/dose
Description: Next, in vivo testing of betulinic acid was performed on established melanomas. In this study, treatment was withheld until day 13, by which time a palpable tumor mass was present in all mice.
In particular, with respect to FIG. 2, four-week-old athymic mice were injected with 5×10^8 MEL-2 cells subcutaneously in the right flank. Four treatment groups of five mice each were studied. In one group, the mice received 250 mg/kg/dose of IP betulinic acid/PVP every third day for six total doses initiated the day following tumor cell injection. The control group received 0.5 ml IP saline. A DTIC treatment group received 4 mg/kg/dose IP DTIC every third day from day 13 to day 28 of the study. The betulinic acid treatment group received 250 mg/kg/dose IP betulinic acid/PVP every third day from day 13 to day 27. The control and DTIC-treated mice were sacrificed and autopsied on day 36 due to their large tumor burden. The remaining mice were sacrificed and autopsied on day 41.

[4] = test system: KB (human oral epidermoid carcinoma); assay: Cytotoxicity against cultured human cancer cells (SRB); assay type: cell-based
Description: as §2

U373 (glioma) = assay: as above; assay type: cell-based; settings: Homo sapiens, U373 MG, 72 h; three days incubation, SRB; read-out: ED50 U373
Description: as §2

LU-1 (lung) = assay: as above; assay type: cell-based; settings: Homo sapiens, 72 h, three days incubation, read-out: ED50 LU-1
Description: as §2

COL-2 (colon) = assay: as above; assay type: cell-based; settings: Homo sapiens, Col2, 72 h; three days incubation, SRB; read-out: ED50 COL-2
Description: as §2

LNCaP (prostate) = assay: as above; assay type: cell-based; settings: Homo sapiens, LNCaP, 72 h; three days incubation, SRB; read-out: ED50 LNCaP
Description: as §2

A431 (squamous cells) = assay: as above; assay type: cell-based; settings: Homo sapiens, A-431, 72 h; three days incubation, SRB; read-out: ED50 A431
Description: as §2

HT-1080 (sarcoma) = assay: as above; assay type: cell-based; settings: Homo sapiens, HT-1080, 72 h, three days incubation, read-out: ED50 HT-1080
Description: as §2

BC-1 (breast) = assay: as above; assay type: cell-based; settings: Homo sapiens, 72 h; three days incubation, SRB; read-out: ED50 BC-1
Description: as §2

ZR-75-1 (breast) = assay: as above; assay type: cell-based; settings: Homo sapiens, ZR-75-1, 72 h; three days incubation, SRB; read-out: ED50 ZR 75-1
Description: as §2

P-388 murine lymphocyte = settings: tests conducted by the National Cancer Institute; cited from earlier work
MEL-2 cells = assay: Formation of the 50 Kbp DNA fragment (apoptosis), field-inversion gel electrophoresis; assay type: cell-based, human
Source text: Therefore, an important feature of the present invention is a method of analyzing and quantifying the formation of the 50 Kbp fragment as a biomarker for induction of apoptosis in human cancer cell lines. This method comprises treatment of cells in culture, followed by analysis of the total cellular DNA content using agarose field-inversion gel electrophoresis. Under these conditions, the 50 Kbp fragment is resolved as a diffuse band. The fraction of the total cellular DNA represented by the 50 Kbp fragment is determined by densitometry on the contour of this band.
To investigate the ability of betulinic acid to induce apoptosis, the above-described method was adapted for use with the MEL-2 cell line. […]
With further respect to FIG. 3A, cultured MEL-2 cells (10^6 cells inoculated per 25 cm^2 flask) were treated with […] betulinic acid (200 μg/ml DMSO, diluted 1:100 in media) for 24, 32, 48, 56 and 72 hours. […] Samples were analyzed on a 1% agarose gel in a Hoefer HE100 SuperSub apparatus cooled to 10° C. by a circulating water bath. […]
Electrophoresis was performed at 172 volts for a total of 18 hours using two sequential field inversion programs with pulse ramping. The DNA/ethidium bromide fluorescence was excited on a UV transilluminator and photographed using Polaroid type 55 P/N film. The negative was analyzed using a PDI scanning densitometer and Quantity One software. […]

## C=C(C)[C@@H]1CC[C@]2(C(=O)O)CC[C@]3(C)[C@H](CC[C@@H]4[C@@]5(C)CC[C@H](O)C(C)(C)[C@@H]5CC[C@]43C)[C@@H]12 [Compound 10, 3β-hydroxy-lup-20(29)-ene-28-oic acid]
[1]; 400 mg/kg
  antitumor activity, Walker 256, subsequent report: inactive
[1]; 300 and 500 mg/kg body weight
  antitumor activity, Walker 256: dose-dependent activity
[2]
  activity in Hippocratic screen: inactive
MEL-4
  ED50 MEL-4: 4.8 µg/mL (≈ 10.5 µM)
MEL-1
  ED50 MEL-1: 1.1 µg/mL (≈ 2.41 µM)
MEL-3
  ED50 MEL-3: 3.3 µg/mL (≈ 7.23 µM)
[3]
  tumor growth, established MEL-2 tumors (FIG. 2): successfully abrogated tumor growth; also recorded: significantly less than that observed in the DTIC-treated animals
[4]; Homo sapiens, 72 h, three days incubation, SRB, Table 1, read-out: ED50 KB
  IC50: > 20 µg/mL
[4]; derivatives, Tables 2-6
  ED50 (Std. Dev.) KB: >20 µg/mL
U373 (glioma)
  IC50: > 20 µg/mL
LU-1 (lung)
  IC50: > 20 µg/mL
COL-2 (colon)
  IC50: > 20 µg/mL
LNCaP (prostate)
  IC50: > 20 µg/mL
A431 (squamous cells)
  IC50: > 20 µg/mL
HT-1080 (sarcoma)
  IC50: > 20 µg/mL
BC-1 (breast)
  IC50: > 20 µg/mL
ZR-75-1 (breast)
  IC50: > 20 µg/mL
P-388 murine lymphocyte
  antitumor activity, P-388: activity was not supported
MEL-2 cells; 2 μg/ml betulinic acid (FIG. 3A)
  treatment period at maximum induction of the 50 Kbp fragment: 56 h
MEL-2 cells; MEL-2 cells treated for 56 hours (FIG. 3B)
  ED50 of the apoptotic response (50 Kbp fragment): about 1.5 μg/ml
